Results reported in US9243037B2, “Gramicidin a mutants that function as antibiotics with improved solubility and reduced toxicity” (Trustees of Boston College, priority 2011, dated 2016).
Where two headings read alike, the source gives them in different places. Marks after values point to notes of the source that are not given here.

Columns and labels:
[1] = tested on: human red blood cells (hRBCs); assay: Haemoglobin release from human red blood cells; type: cell-based; conditions: red cells of human
Method in brief: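 Washed fresh human RBCs at 1% (v/v) in PBS were incubated with 2-fold serial peptide dilutions (DMSO vehicle) for 1 h at 37 °C, then centrifuged. Haemoglobin in the supernatant was read at 415 nm. % hemolysis was taken relative to DMSO blank and 1% Triton X-100 complete lysis.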

MCF-7 = assay: MTT toxicity assay; type: cell-based, human
Method: (§1) Toxicity of gA-WT and gA-5 was tested against two human cancer cell lines, HeLa and MCF-7 (gifts from Professor Eranthie Weerapana at Boston College) by using the MTT assay as described in the protocol provided by Invitrogen.[5] HeLa cells (in DMEM high glucose media with 10% FBS, 1% Pen/Strep, 37° C., 5% CO2) and MCF-7 cells (in RPMI media with 10% FBS and 1% Pen/Strep, 37° C., 5% CO2) were grown to about 80% confluent before removed from the surface of a 20 cm petri-dish with […] with EDTA (3-5 mins, 37° C., 5% CO2). Cells were pelleted (3,500 rpm, 5 mins at 4° C.), and plated at 15,000 cells per well (100 μL per well), then incubated for 48 hrs before peptide addition.
(§2) Stock solutions of gA in DMSO with varied concentrations were prepared so that for each peptide concentration the total volume of DMSO addition was kept constant at 1% (v/v). For each peptide concentration, samples were set up as four replicates. Control wells were loaded with 1 μL of DMSO. After overnight incubation, cells were washed once with PBS before being incubated for 4 hrs with 110 μL of 12 mM 3-(4,5-Dimethylthiazol-2-yl)-2,5-diphenyltetrazolium bromide (MTT) dissolved in RPMI media. The MTT assay was quenched with 100 μL of 10% SDS in 0.01 M HCl and allowed to incubate overnight before absorbance at 570 nm was recorded. Wells were averaged and standard deviations determined for each peptide concentration. Data were normalized to the DMSO control to give % cell survival (see FIG. 3).

HeLa = assay: MTT toxicity assay; type: cell-based, human
Method: as §1, §2

[2] = Peptide binding onto membranes (Trp fluorescence); conditions: neutral POPC vesicles; in words
[3] = tested on: Streptococcus pyogenes (ATCC 19615)
[4] = Peptide binding onto membranes (Trp fluorescence); conditions: negatively charged POPC/POPG vesicles; in words
[5] = tested on: Staphylococcus aureus (ATCC 6538)
[6] = K+ leakage from liposomes; type: biochemical; conditions: FIG. 4B; in words
Method: A chloroform solution containing 76 mg of POPC (for POPC LUVs) or a chloroform/meol (1/1) containing 38 mg of POPC and 38.5 mg POPG sodium salt (for POPC/POPG LUVs, POPC:POPG=1:1) was dried under reduced pressure to form a thin film, which was then […] with 2 mL aqueous buffer: (1) 10 mM HEPES, 150 mM KCl, pH 7.0 for K+ leakage assay; (2) 10 mM TES, 100 mM sodium citrate, 50 mM TbCl3, pH 7.0 for Tb3+ leakage assay; (3) 10 mM HEPES, 150 mM NaCl, pH 7.0 for peptide binding assay. After 20 cycles of freezing and thawing, the liposome suspension was extruded 21 times through a 100 nm polycarbonate membrane (LIPOSOFAST Mini Extrusion system, Avanti Polar Lipids; Whatman Nuclepore Track-Etch Membrane) at RT. Free K+ or Tb3+ were removed by gel filtration (ÄKTA FPLC with HIPREP™ 16/60 Sephacryl TM-S-500HR column) using Buffer A for (1) and (3) or Buffer B for (2) as the eluents. The lipid concentration was determined by the Stewart assay and the size of liposome was confirmed by Dynamic Light Scattering (DLS, DYNAPRO NANOSTAR, Wyatt, Santa Barbara, Calif.). After gel filtration the polydispersity of all liposome are below 20%.
The K+ leakage from liposomes was determined by a potassium ion selective electrode (K-ISE, Cole-Parmer, Vernon Hills, Ill.). […] Three minutes after each peptide addition, the K+ concentration was measured and reported as the K-ISE potential. […]

[7] = tested on: human red blood cells (hRBCs); assay: K+ leakage from hRBCs (flame atomic emission); type: cell-based
Method: The rest of supernatant (1.2 mL) from each sample prepared as described in the hemoglobin leakage assay was transferred into a new sterile eppendorf tube and subject to the K+ concentration measurement using a flame-atomic emission spectrometer (λem=766.5 nm, Perkin Elmer Atomic absorption Spectrometer 3100, acetylene/air flame). Three readings were taken for each sample and averaged as final results. The fraction of K+ leakage from hRBCs was calculated as percentage K+ leaked=100·(I776.5,peptide−I776.5,DMSO)/(I776.5,complete lysis−I776.5,DMSO).

[8] = Proton leakage from EYPC vesicles (HPTS); type: biochemical; conditions: peptide premixed with lipids; in words
Method: To confirm that lack of binding causes loss of membrane activity, we decided to premix the peptides and lipids in organic solvent and then dried out the mixture before hydration. Then, the peptides would be trapped into the bound form upon vesicle formation. The peptides distribution was determined by monitoring Trp fluorescence and the channel activity was determined by monitoring the proton leakage from LUVs using a pH sensitive fluorescence dye HPTS. Peptides 10, 12, 14K and 10, 12, 14 M gA were chosen to mix with neutral lipids EYPC.

For `CC(C)C[C@@H](NC(=O)[C@H](C)NC(=O)CNC(=O)[C@@H](NC=O)C(C)C)C(=O)N[C@@H](C)C(=O)N[C@@H](C(=O)N[C@H](C(=O)N[C@@H](C(=O)N[C@@H](Cc1c[nH]c2ccccc12)C(=O)N[C@H](CCCCN)C(=O)N[C@@H](Cc1c[nH]c2ccccc12)C(=O)N[C@H](CCCCN)C(=O)N[C@@H](Cc1c[nH]c2ccccc12)C(=O)N[C@H](CCCCN)C(=O)N[C@@H](Cc1c[nH]c2ccccc12)C(=O)NCCO)C(C)C)C(C)C)C(C)C` (racemic) [gA-5, formyl-V-G-A-dL-A-dV-V-dV-W-dK-W-dK-W-dK-W-NHCH2CH2OH], the “HC50 (50% haemoglobin leakage relative to 1% TritonX-100)” value [1] was greater than 100 µM, the “toxicity, cell survival (MTT)” value (MCF-7) was “essentially unaffected” and the “toxicity, cell survival (MTT)” value (HeLa) was “essentially unaffected”. For the same molecule, the “apparent dissociation constant (Kd) / binding” value [2] was “no detectable binding”, the “MICs S. Pyogenes” value ([3]; ATCC 19615) was 0.62 µM and the “MIC relative to wild-type Gramicidin A” value ([3]; S. Pyogenes) was “equivalent to or ˜2-fold higher”. For the same molecule, the antibacterial activity ([3]; S. pyogenes, in words) was “highly potent”, the “apparent dissociation constant (Kd) / binding” value [4] was “dropped by a marginal four fold” and the “MICs S. Aureus” value ([5]; ATCC 6538) was greater than 10 µM. For the same molecule, the “MIC relative to wild-type Gramicidin A” value ([5]; S. Aureus) was “much higher MIC”, the “MICs S. Aureus” value ([5]; Table 2, standard micro-dilution) was >10 ^[e] μM and the “K+ leakage from negatively charged liposomes” value [6] was “lack of K+ leakage”. The “KC50 (50% K+ ion leakage relative to 1% TritonX-100)” value [7] was greater than 100 µM, the “peptide concentration for 50% K+ ion leakage, fold greater than wild-type Gramicidin A” value [7] was “over 10^6 fold” and the “proton leakage from EYPC LUVs” value [8] was “caused proton leakage”.
